Data as given in US9359372B2, “Hexahydrodibenzo[a,g]quinolizine compound, preparation method thereof, pharmaceutical composition and use thereof” (SHANGHAI INSTITUTE OF MATERIA MEDICA, CHINESE ACADEMY OF …, priority 2011, dated 2016).

Tests used:
[1] = target: dopamine D1 receptor (Macaca mulatta (Rhesus macaque), UniProt O77680); assay: Affinity on dopamine D1 receptor, competition with [3H] SCH23390; format: binding; parameters: D1 receptor inhibition ratio (%): concentration or dose not given beside the values; conditions: for affinity on dopamine D1 receptor (in words): summary of the tables
Experimental: (§1) (1). Determination of the Affinity of Hexahydrodibenzo[a,g]Quinolizine Compound of General Formula I and Derivatives Thereof on Dopamine D1, Dopamine D2, 5-HT1A, and 5-HT2A Receptor.
(§2) 1) The Experimental Method
(§3) Different concentrations (10^−5 M-10^−11 M) of the compound of the invention and corresponding isotope receptor ligand as well as receptor protein were loaded into the reaction tube and incubated in 30° C. water bath for 60 minutes. The reaction was terminated in a refrigerator. The reaction mixture was put in a Millipore filter (millipore) cell sample collector, filtered through suction filtration using GF/C glass fiber filter paper, and dried. The resulting sample was placed into 0.5 mL tube. 500 μL liquid scintillation fluid was added and intensity of radioactivity was determined by counting.
(§4) (1) Construction of receptor and materials for cell culture: Escherichia coli. DH5α strain; insect virus transfer vector pVL1393 plasmid; BaculoGold linear Chinese baculovirus DNA, purchased from ParMingen company; mkD1RcDNA; rD2R cDNA; various restriction endonucleases, TaqDNA polymerase, T4 ligase, etc., LB medium; insect cell culture TNM-FH.
(§5) (2) the Experimental Materials for Receptor Binding
(§6) Firstly, the above […] are dissolved in DMSO and then diluted with double distilled water to the appropriate concentration (10^−5 M-10^−11 M).
(§7) (+) Butaclamo purchased from RBI company, GF/C glass fiber filter paper purchased from Whatman Co., scintillation fluid (dopamine D1, D2 receptors)/liposoluble scintillation fluid (5-HT1A, 5-HT2A receptor), Beckman LS-6500 multi-function liquid scintillation counter.

[2] = target: D2 dopamine receptor (Rattus norvegicus (Rat), UniProt P61169); assay: Affinity on dopamine D2 receptor, competition with [3H] Spiperone; format: binding; parameters: D2 receptor inhibition ratio (%): concentration or dose not given beside the values; conditions: for affinity on dopamine D2 receptor (in words): summary of the tables
Experimental: as §1, §2, §3, §4, §5, §6, §7

[3] = target: T1, dopamine D2 receptor (Homo sapiens (Human), UniProt P14416); assay: Inhibition property on dopamine D2 receptor, cAMP detection in CHO cells stably expressing D2 receptor; format: cell-based; conditions: 10 μM Forskoline and 10 μM dopamine, read-out: D2 receptor Antagonist IC50
Experimental: 2. Determination of the Inhibition Property of Hexahydrodibenzo[a,g]Quinolizine Compound of General Formula I and Derivatives Thereof on Dopamine D2 Receptor.
(1) The Experimental Method
Each medicament was dissolved in serum-free F12 culture medium containing 100 μM of IBMX. CHO cells which can stably express D2 receptor were pre-incubated at 37° C. for 10 min, and then 10 μM Forskoline and 10 μM Dopanie were added at the same time to react for 10 min. 100 μL, of pre-cooled 1 M of HClO4 was added and the reaction was terminated at 4° C. for 1 hour. 20 μL of 2 M K2CO3 was added to neutralize the reaction. […] A certain amount of the supernatant was taken for cAMP detection.

[4] = target: 5-HT1A receptor (Homo sapiens (Human), UniProt P08908); assay: Affinity on 5-HT1A receptor, competition with [3H] 8-OH-DPAT; format: binding
Experimental: as §1, §2, §3, §5
8-OH-DPAT; 5-HT1A receptor protein expressed in HEK-293 cells;
as §6, §7

[5] = target: 5-HT2A receptor (Homo sapiens (Human), UniProt P28223); assay: Affinity on 5-HT2A receptor, competition with [3H]-Ketanserin; format: binding
Experimental: as §1, §2, §3, §5, §6, §7

[6] = target: D1 dopamine receptors (Homo sapiens (Human), UniProt P21728); assay: Radioligand binding assay, D1 receptor, HEK293T membrane homogenates; conditions: HEK293T membranes, [3H]SCH23390
Experimental: (§8) The affinity of compounds to D1 and D2 dopamine receptors were determined by competition binding assays. Membrane homogenates of HEK293T cells were stably transfected with D1, or D2 receptors. […] The reaction was started by addition of membranes ([…]) and stopped by rapid filtration through Whatman GF/B glassfiber filter and subsequently washed with cold buffer (50 mM Tris, 5 mM EDTA, pH 7.4) using a Brandel 24-well cell harvester. Scintillation cocktail was added and the radioactivity was determined in a MicroBeta liquid scintillation counter. The IC50 and Ki values were calculated by nonlinear regression (PRISM, Graphpad, San Diego, Calif.) using a sigmoidal function.

[7] = target: T1, dopamine D2 receptor; assay: Radioligand binding assay, D2 receptor, HEK293T membrane homogenates; parameters: D2 Inhibition (%): concentration or dose not given beside the values; conditions: HEK293T membranes, [3H]Spiperone
Experimental: as §8

[8] = target: D1 receptor (Homo sapiens (Human), UniProt P21728); assay: [35S]GTPγS binding assay for D1 receptor; format: biochemical
[9] = according to CN101037436; cited from earlier work

Chain of D2 dopamine receptor (P61169 whole entry): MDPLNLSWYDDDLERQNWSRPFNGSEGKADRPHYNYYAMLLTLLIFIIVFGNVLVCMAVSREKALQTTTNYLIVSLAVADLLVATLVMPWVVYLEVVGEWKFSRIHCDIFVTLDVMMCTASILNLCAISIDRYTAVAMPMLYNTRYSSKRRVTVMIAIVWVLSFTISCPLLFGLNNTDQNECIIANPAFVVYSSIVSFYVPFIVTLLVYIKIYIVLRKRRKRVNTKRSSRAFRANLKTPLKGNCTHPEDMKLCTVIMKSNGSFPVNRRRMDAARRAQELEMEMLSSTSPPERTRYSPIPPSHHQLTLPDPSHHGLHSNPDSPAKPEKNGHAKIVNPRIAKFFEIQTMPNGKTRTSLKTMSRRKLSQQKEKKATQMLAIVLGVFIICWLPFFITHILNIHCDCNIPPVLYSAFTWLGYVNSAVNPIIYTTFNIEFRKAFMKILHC
Chain of D1 receptor (P21728 whole entry): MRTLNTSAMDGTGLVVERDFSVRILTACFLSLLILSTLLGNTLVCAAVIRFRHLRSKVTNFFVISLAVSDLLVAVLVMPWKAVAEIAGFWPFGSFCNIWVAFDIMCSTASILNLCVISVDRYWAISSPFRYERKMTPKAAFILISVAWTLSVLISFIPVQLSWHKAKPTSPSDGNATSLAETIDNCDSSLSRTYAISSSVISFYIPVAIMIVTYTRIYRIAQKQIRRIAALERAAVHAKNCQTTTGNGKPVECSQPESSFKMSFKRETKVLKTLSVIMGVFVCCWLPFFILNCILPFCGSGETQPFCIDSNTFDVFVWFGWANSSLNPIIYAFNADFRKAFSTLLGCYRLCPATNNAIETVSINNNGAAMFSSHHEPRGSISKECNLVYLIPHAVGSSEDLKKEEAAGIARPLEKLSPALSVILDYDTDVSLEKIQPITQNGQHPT
Chain of dopamine D1 receptor (O77680 whole entry): as the sequence (P21728 whole entry) above, with N311I counted along it
Chain of 5-HT1A receptor (P08908 whole entry): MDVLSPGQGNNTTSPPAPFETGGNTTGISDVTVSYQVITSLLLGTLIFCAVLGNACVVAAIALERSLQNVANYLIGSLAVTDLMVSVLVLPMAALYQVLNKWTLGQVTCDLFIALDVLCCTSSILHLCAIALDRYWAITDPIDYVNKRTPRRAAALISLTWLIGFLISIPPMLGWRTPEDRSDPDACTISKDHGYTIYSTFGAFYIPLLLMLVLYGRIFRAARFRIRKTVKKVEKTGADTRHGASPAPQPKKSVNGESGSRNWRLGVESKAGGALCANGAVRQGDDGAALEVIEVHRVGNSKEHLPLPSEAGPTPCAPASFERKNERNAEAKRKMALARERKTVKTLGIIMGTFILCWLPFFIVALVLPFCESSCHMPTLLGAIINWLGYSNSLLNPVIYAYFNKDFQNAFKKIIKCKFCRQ
T1 sequence (P14416 whole entry, species assumed): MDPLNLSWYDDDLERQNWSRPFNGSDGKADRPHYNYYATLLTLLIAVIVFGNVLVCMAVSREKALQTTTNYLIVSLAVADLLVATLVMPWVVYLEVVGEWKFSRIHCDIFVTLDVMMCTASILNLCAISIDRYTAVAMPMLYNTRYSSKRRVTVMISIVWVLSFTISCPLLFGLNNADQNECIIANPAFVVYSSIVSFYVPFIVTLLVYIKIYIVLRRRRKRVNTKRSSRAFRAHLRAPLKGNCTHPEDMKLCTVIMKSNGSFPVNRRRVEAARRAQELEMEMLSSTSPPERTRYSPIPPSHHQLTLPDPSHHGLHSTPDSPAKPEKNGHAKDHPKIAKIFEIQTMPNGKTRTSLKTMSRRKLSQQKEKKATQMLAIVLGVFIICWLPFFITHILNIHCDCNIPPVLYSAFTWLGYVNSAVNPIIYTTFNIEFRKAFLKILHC
Chain of 5-HT2A receptor (P28223 whole entry): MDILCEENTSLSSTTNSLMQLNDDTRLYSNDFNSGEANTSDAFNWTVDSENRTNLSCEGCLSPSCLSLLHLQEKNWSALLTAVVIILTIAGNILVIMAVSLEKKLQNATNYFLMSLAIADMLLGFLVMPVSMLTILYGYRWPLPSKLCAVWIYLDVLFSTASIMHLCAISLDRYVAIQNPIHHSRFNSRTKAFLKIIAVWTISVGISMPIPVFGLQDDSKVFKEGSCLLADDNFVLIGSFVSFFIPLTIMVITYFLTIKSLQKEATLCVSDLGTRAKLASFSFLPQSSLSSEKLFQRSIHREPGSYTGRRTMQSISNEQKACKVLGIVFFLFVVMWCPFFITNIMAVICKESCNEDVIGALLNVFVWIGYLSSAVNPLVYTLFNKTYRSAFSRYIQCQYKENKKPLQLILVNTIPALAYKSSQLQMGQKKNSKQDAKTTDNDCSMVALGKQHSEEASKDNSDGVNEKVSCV
Chain of D1 dopamine receptors (P21728 whole entry): as the sequence (P21728 whole entry) above

D1 receptor inhibition ratio (%) [1] [%]	IC50 [1] [nM]	Ki [1] [nM]	D2 receptor inhibition ratio (%) [2] [%]	IC50 [2] [nM]	Ki [2] [nM]	IC50 [3] [nM]	affinity on dopamine D1 receptor (in words) [1]	affinity on dopamine D2 receptor (in words) [2]	5-HT1A receptor inhibition ratio (%) [4] [%]	IC50 [4] [nM]	Ki [4] [nM]	5-HT2A receptor inhibition ratio (%) [5] [%]	Ki [6] [nM]	D2 Inhibition (%) [7] [%]	D1 antagonist Imax % ([8]; [35S]GTPγS binding) [%]	IC50 ([8]; [35S]GTPγS binding, read-out: D1 antagonist IC50) [nM]	D1 receptor antagonistic activity (in words) ([8]; summary of Table 10)	D1 receptor selectivity (in words) ([8]; summary of Table 10)	Structure (SMILES)	oral bioavailability [9] [%]
101.0	101	50.1	92.8	1730	334	4030	–	–	–	–	–	–	–	–	–	–	–	–	COc1cc2c(cc1OC)[C@@H]1Cc3c(OC)ccc(OC)c3CN1CC2 [DC037008, S-(−)-2,3,9,12-tetramethoxy-5,8,13,13a-tetrahydro-6H-dibenzo[a,g]quinolizine]	–
94.5	684	338	97.4	1160	224	16200	–	–	–	–	–	–	–	–	–	–	–	–	COc1cc2c(cc1OC)[C@@H]1Cc3cc(C)cc(C)c3CN1CC2 [DC037017, S-(−)-2,3-bimethoxy-9,11-dimethyl-5,8,13,13a-tetrahydro-6H-dibenzo[a,g]quinolizine]	–
99.89	7.22	3.7	74.27	–	–	–	strong affinity	strong affinity	80.41	626	493	39.99	3.7 ± 0.26	74.27	86.8 ± 1.6	1900 ± 400	D1 receptor antagonistic activity	good D1 receptor selectivity	COc1cc2c(cc1O)[C@@H]1Cc3c(OC)ccc(OC)c3CN1CC2 [DC037030, S-(−)-2-hydroxy-3,9,12-trimethoxy-5,8,13,13a-tetrahydro-6H-dibenzo[a,g]quinolizine]	–
99.21	49.2	25.2	28.67	–	–	–	strong affinity	strong affinity	95.36	51.5	40.6	37.75	–	–	–	–	–	–	COc1ccc(OC)c2c1C[C@H]1c3cc4c(cc3CCN1C2)OCCO4 [DC037032]	–
97.33	324	182	41.75	–	–	–	–	–	88.63	758	600	45.63	–	–	–	–	–	–	COc1cc(OC)c2c(c1CO)C[C@H]1c3cc4c(cc3CCN1C2)OCO4 [DC037077, (S)-2,3-methylenedioxy-9,11-bimethoxy-12-hydroxymethyl-5,8,13,13a-tetrahydro-6H-dibenzo[a,g]quinolizine]	–
–	–	–	–	–	–	–	–	–	–	–	–	–	–	–	–	–	–	–	COc1cc2c(cc1O)[C@@H]1Cc3ccc(O)c(OC)c3CN1CC2 [l-SPD, l-Stepholidine]	6.83

Structure (SMILES)	D1 receptor inhibition ratio (%) [1] [%]	IC50 [1] [nM]	Ki [1] [nM]	D2 receptor inhibition ratio (%) [2] [%]	IC50 [2] [nM]	Ki [2] [nM]	IC50 [3] [nM]	affinity on dopamine D1 receptor (in words) [1]	affinity on dopamine D2 receptor (in words) [2]	5-HT1A receptor inhibition ratio (%) [4] [%]	IC50 [4] [nM]	Ki [4] [nM]	5-HT2A receptor inhibition ratio (%) [5] [%]	Ki [6] [nM]	D2 Inhibition (%) [7] [%]	D1 antagonist Imax % ([8]; [35S]GTPγS binding) [%]	IC50 ([8]; [35S]GTPγS binding, read-out: D1 antagonist IC50) [nM]	D1 receptor antagonistic activity (in words) ([8]; summary of Table 10)	D1 receptor selectivity (in words) ([8]; summary of Table 10)	oral bioavailability [9] [%]
COc1cc2c(c(OC)c1)CN1CCc3cc(OC)c(OC)cc3[C@@H]1C2 [DC037075, (S)-2,3,9,11-tetramethoxy-5,8,13,13a-tetrahydro-6H-dibenzo[a,g]quinolizine]	97.88	114	64.1	39.50	–	–	–	–	–	90.77	922	730	54.04	–	–	–	–	–	–	–
